Results on two molecules are retold here after US20220031684A1, “PROPHYLACTIC EFFICACY OF SEROTONIN 4 RECEPTOR AGONISTS AGAINST STRESS” (THE TRUSTEES OF COLUMBIA UNIVERSITY IN THE CITY OF NEW YORK, priority 2019, published 2022).

Assay [1] deals with BALB/cJRj mice. Kind of assay: Elevated plus maze (EPM), acute anxiolytic-like effect. Type of assay: in vivo. To be noted: GR125487 1 mg/kg i.p. 15 min before RS67333 1.5 mg/kg i.p. On the procedure:
(§1) RS67333 (1.5 mg/kg, i.p.), diazepam (1.5 mg/kg, i.p.), fluoxetine (18 mg/kg, i.p.) were injected 45 min before testing in the Elevated Plus Maze (EPM), the Novelty Suppressed Feeding (NSF) or the Open Field (OF) in three independent cohorts of male BALB/cJRj mice.
(§2) To ensure the selectivity of the anxiolytic-like effects of RS67333, in a new cohort of male BALB/cJRj mice, GR125487 (1.0 mg/kg, i.p.) dissolved in 0.9% NaCl solution, was injected 15 minutes before RS67333 administration (1.5 mg/kg, i.p.). EPM or NSF occurred 45 min after RS67333 administration (A-S1). Behavioral consequences of the co-administration of GR125487+RS67333 were compared to RS67333 alone, diazepam (1.5 mg/kg, i.p.) fluoxetine (18 mg/kg, i.p.) and vehicle groups (0.9% saline solution, i.p.).
(§3) For mPFC drug infusion, two bilateral cannulae (75 μm-diameter silica capillary tubing inserted in 27G stainless steel catheter) were implanted in the mPFC [stereotaxic coordinates in mm from bregma: A=+2.10, L=±0.50, V=−2.60, A, anterior; L, lateral; and V, ventral, according to (A-S10)] under anesthesia (chloral hydrate, 400 mg/kg, i.p.). […] Diazepam (1.5 mg/kg) was used as a positive control.
In a new cohort of male BALB/cJRj mice, p-CPA was administered twice daily (at 0900 and 1700 h) for 3 consecutive days. RS67333 ([…]) and diazepam ([…]) were then intra-mPFC administered 24 h after the final p-CPA administration and behavioral test (EPM) occurred 45 minutes after local infusion.
The EPM is a widely used behavioral assay for rodents and it has been validated to assess the anti-anxiety effects of pharmacological agents (A-S11). This test was performed as described by (A-S1). The maze is a plus-cross-shaped apparatus, with two open arms and two arms closed by walls linked by a central platform 50 cm above the floor. Mice were individually put in the center of the maze facing an open arm and were allowed to explore the maze during 5 min for the behavioral consequences of an acute systemic administration or mPFC infusion and during 6 min for the optogenetic experiments. The time spent in and the numbers of entries into the open arms were used as an anxiety index. All parameters were measured using a videotracker (EPM3C, Bioseb, Vitrolles, France).

Assay [2] concerns BALB/cJRj mice. Kind of assay: Novelty suppressed feeding (NSF), acute anxiolytic-like effect. It counts as in vivo. The settings on record: GR125487 1 mg/kg i.p. 15 min before RS67333 1.5 mg/kg i.p. As to the method: as §1, §2, §3
The NSF is a conflict test that elicits competing motivations: the drive to eat and the fear of venturing into the center of a brightly lit arena. The latency to begin eating is used as an index of anxiety/depression-like behavior, because classical anxiolytic drugs as well as chronic antidepressants decrease this measure. The NSF test was carried out during a 10 min period as previously described (A-S12). Briefly, the testing apparatus consisted of a plastic box (50×50×20 cm), the floor of which was covered with approximately 2 cm of wooden bedding. Twenty-four hours prior to behavioral testing, all food was removed from the home cage. At the time of testing, a single pellet of food (regular chow) was placed on a white paper platform positioned in the center of the box. Each animal was placed in a corner of the box, and a stopwatch was immediately started. The latency to eat (defined as the mouse sitting on its haunches and biting the pellet with the use of forepaws) was timed. Immediately afterwards, the animal was transferred to its home cage, and the amount of food consumed by the mouse in the subsequent 5 min was measured, serving as a control for change in appetite as a possible confounding factor.

Assay [3] deals with 129S6/SvEv mice. Kind of assay: 3-shock contextual fear conditioning (CFC). It counts as in vivo. On the procedure: (§4) This chronic CORT elevation dysregulates the hypothalamic-pituitary-adrenal axis (HPA) in a manner similar to that observed in clinical depression. The dose and duration of CORT treatment was selected based on previous studies. CORT (35 μg/ml, equivalent to about 5 mg/kg/day) dissolved in 0.45% hydroxypropyl-o-cyclodextrin (0-CD) or vehicle (VEH) (0.45% j-CD) was available ad libitum in the drinking water in opaque bottles to protect it from light. VEH- and CORT-treated water was changed every 3 days to prevent possible degradation. Contextual Fear Conditioning (CFC): A 3-shock CFC procedure was administered as previously published. Briefly, mice were placed into context A and administered 3 2-s shocks (0.75 mA) at 180 s, 240 s or 300 s following placement into context A. Mice were removed from the context 15 s following the termination of shock (at 317 s). For context retrieval, mice were placed back into context A for 300 s. Electrophysiology: Electrophysiology was conducted as previously described. Statistical Analysis: Results from data analyses are expressed as means±SEM. Alpha was set to 0.05 for all analyses. Data were analyzed using GraphPad Prism v7.0 or v8.0. For all experiments, unless otherwise noted, one- or two-way ANOVAs with repeated-measures were applied to the data as appropriate. Significant main effects and/or interactions were followed by Fisher's PLSD post hoc analysis or unpaired t-tests. Drugs: All drugs were prepared in physiological saline and all injections were administered intraperitoneally (i.p.) in volumes of 0.1 cc per […] body weight unless otherwise noted. Fluoxetine hydrochloride (Flx): Flx (BioTrend Chemicals AG, BG197, Zurich, Germany) was administered in the drinking water (18 mg/kg/day) for 3 weeks before the start of CORT. […] (R,S)-ketamine (K): (R,S)-ketamine (Ketaset III, Ketamine HCl injection, Fort Dodge Animal Health, Fort Dodge, Iowa) was administered in a single dose at 30 mg/kg of body weight 1 week before the start of CFC. […] PF-04995274: PF-04995274 (Sigma, Catalog No. 1331782-27-4, St. Louis, Mo.) was administered a single dose at 3 or 10 mg/kg of body weight 1 week before the start of CFC. PF-04995274 was dissolved in saline using an ultrasonic homogenizer (BioLogics, Model 3000, Manassas, Va.). Osmotic minipump implantation: ALZET osmotic minipumps (Model 2004, […], 28 days) were implanted subcutaneously under isoflurane anesthesia as previously described [S2]. Osmotic minipumps were rotated under the skin two to three times per week. Behavioral Assays: All experiments were approved by the Institutional Animal Care and Use Committee (IACUC) at the New York Psychiatric Institute (NYSPI). Elevated Plus Maze (EPM): Testing was performed as previously described [S3]. Briefly, the maze is a plus-cross-shaped apparatus consisting of four arms, two open and two enclosed by walls, linked by a central platform at a height of 50 cm from the floor. Mice were individually placed in the center of the maze facing an open arm and were allowed to explore the maze for 5 min. The time spent in and the number of entries into the open arms was used as an anxiety index. Videos were scored using ANY-maze behavior tracking software (Stoelting, Wood Dale, Ill.). Novelty-Suppressed Feeding: The NSF is a conflict test that elicits competing motivations: the drive to eat and the fear of venturing into the center of a brightly lit arena. The latency to feed is used as an index of anxiety-like behavior, because classical anxiolytic drugs decrease this measure. The NSF test was carried out during an 8 min period as previously described [S3]. Briefly, the testing apparatus consisted of a plastic box (50×50×20 cm), the floor of which was covered with approximately 2 cm of bedding. For 129S6/SvEv experiments, mice were food restricted for 12 h. For the C57BL/6N experiments, mice were food restricted for 24 h. […]

For assay [4], the system named is 129S6/SvEv mice. Put plainly: Forced swim test (FST) after CFC. It counts as in vivo. On the procedure: as §4
For assay [5], the system named is CA3 pyramidal cells. Put plainly: Whole-cell voltage clamp recordings of spontaneous EPSCs in CA3 slices. Type of assay: cell-based, mice. To be noted: (R,S)-ketamine 30 mg/kg or prucalopride 3 mg/kg injected 1 week before slicing. On the procedure: as §4
Where [6] appears, read: FIG. 4 cohort, Male, FIG. 4C, RMANOVA, Fisher's LSD.
Setting [7] is: FIG. 4 cohort, Male, FIG. 4D, ANOVA, Fisher's LSD.
Where [8] appears, read: FIG. 4 cohort, Male, FIG. 4F, RMANOVA, Fisher's LSD.
The mark [9] stands for this setting: FIG. 4 cohort, Male, FIG. 4G, ANOVA, Fisher's LSD.

Consider `COc1[nH]c2ccc(F)cc2c1C(=O)OCC1CCN(CCNS(C)(=O)=O)CC1.NS(=O)(=O)O` [GR125487, 5-Fluoro-2-methoxy-[1-[2-[(methylsulfonyl)amino]ethyl]-4-piperidinyl]-1H-indole-3-methylcarboxylate sulfamate], for which, in assay [1], the “RS67333-induced increase in time and percent time spent in the open arms (EPM)” value is “prevented”; the “RS67333-induced increase of ambulatory distance in the open arms divided by total distance (EPM)” value was “prevented”. In addition, in assay [2], the “effect of RS67333 on the latency to feed (NSF)” value was “occluded”.
Take `CNC1(c2ccccc2Cl)CCCCC1=O` (racemic) [(R,S)-ketamine]: in assay [3] (setting [6]), the “p, CFC Re-exposure Freezing (%), (R,S)-ketamine (30 mg/kg) vs. PF04995274 (3 mg/kg)” value is 0.1027; the “p, CFC Re-exposure Freezing (%), (R,S)-ketamine (30 mg/kg) vs. PF04995274 (10 mg/kg)” value turned out to be 0.8015; the “p, CFC Re-exposure Freezing (%), (R,S)-ketamine (30 mg/kg) vs. Prucalopride (3 mg/kg)” value turned out to be 0.1343; the “p, CFC Re-exposure Freezing (%), (R,S)-ketamine (30 mg/kg) vs. Prucalopride (10 mg/kg)” value was determined as 0.1023. In addition, in assay [3] (setting [6]), the “p, CFC Re-exposure Freezing (%), Saline vs. (R,S)-ketamine” value is recorded as 0.0448. In assay [3] (setting [7]), the “p, CFC Re-exposure, (R,S)-ketamine (30 mg/kg) vs. PF04995274 (3 mg/kg)” value is listed as 0.1027; the “p, CFC Re-exposure, (R,S)-ketamine (30 mg/kg) vs. PF04995274 (10 mg/kg)” value amounted to 0.8015; the “p, CFC Re-exposure, (R,S)-ketamine (30 mg/kg) vs. Prucalopride (3 mg/kg)” value is 0.1343; the “p, CFC Re-exposure, (R,S)-ketamine (30 mg/kg) vs. Prucalopride (10 mg/kg)” value turned out to be 0.1023. Further, the “p, CFC Re-exposure, Saline vs. (R,S)-ketamine” value in assay [3] (setting [7]) was 0.0448. Also, the “freezing during CFC training” value in assay [3] (male 129S6/SvEv, (R,S)-ketamine 30, prucalopride 3 or 10, PF-04995274 3 or 10 mg/kg, 1 week before CFC, vs saline) was “comparable levels of freezing”. Also, the “freezing at re-exposure to the training context (learned fear) vs saline” value in assay [3] (male 129S6/SvEv, single i.p. injection 1 week before CFC, re-exposure 5 days later, 30 mg/kg) is listed as “attenuated learned fear”. Further, in assay [4] (setting [8]), the “p, FST Day 2 Immobility Time (sec), (R,S)-ketamine (30 mg/kg) vs. PF04995274 (3 mg/kg)” value came to 0.4094; the “p, FST Day 2 Immobility Time (sec), (R,S)-ketamine (30 mg/kg) vs. PF04995274 (10 mg/kg)” value stood at 0.3813; the “p, FST Day 2 Immobility Time (sec), (R,S)-ketamine (30 mg/kg) vs. Prucalopride (3 mg/kg)” value was determined as 0.8332; the “p, FST Day 2 Immobility Time (sec), (R,S)-ketamine (30 mg/kg) vs. Prucalopride (10 mg/kg)” value is 0.1712. Also, the “p, FST Day 2 Immobility Time (sec), Saline vs. (R,S)-ketamine (30 mg/kg)” value in assay [4] (setting [8]) is listed as 0.0218. For the same molecule, in assay [4] (setting [9]), the “p, FST Day 2 Immobility Time (min 3-6) (sec), (R,S)-ketamine (30 mg/kg) vs. PF04995274 (3 mg/kg)” value stood at 0.5815; the “p, FST Day 2 Immobility Time (min 3-6) (sec), (R,S)-ketamine (30 mg/kg) vs. PF04995274 (10 mg/kg)” value turned out to be 0.3207; the “p, FST Day 2 Immobility Time (min 3-6) (sec), (R,S)-ketamine (30 mg/kg) vs. Prucalopride (3 mg/kg)” value turned out to be 0.8478; the “p, FST Day 2 Immobility Time (min 3-6) (sec), (R,S)-ketamine (30 mg/kg) vs. Prucalopride (10 mg/kg)” value turned out to be 0.1763. Also, in assay [4] (setting [9]), the “p, FST Day 2 Immobility Time (min 3-6) (sec), Saline vs. (R,S)-ketamine (30 mg/kg)” value came to 0.0330. In addition, the “immobility, FST day 1” value in assay [4] (male 129S6/SvEv, (R,S)-ketamine 30, prucalopride 3 or 10, PF-04995274 3 or 10 mg/kg) is listed as “comparable levels of immobility”. Besides, the “immobility time, FST day 2 vs saline” value in assay [4] (male 129S6/SvEv, single injection 1 week before CFC, 30 mg/kg) was “decreased immobility time”. In addition, in assay [5], the “average EPSC amplitude vs saline” value was “no differences”, the “large AMPA receptor-mediated bursts of EPSCs” value is recorded as “not present” and the “number of EPSCs vs saline” value is “no differences”.
